For nine compounds, EC50 results are on record in patent EP3825318A1, “OXALAMIDO-SUBSTITUTED TRICYCLIC INHIBITORS OF HEPATITIS B VIRUS” (priority 2019, dated 2021).

What is called EC50 is the concentration needed to bring the measured effect to its halfway point.

The structures appear in SMILES notation.

In this assay the test system is HBV. The assay can be described thus: Anti-HBV activity in vitro: extracellular HBV DNA by qPCR in HepAD38 cells. It is filed as cell-based. The settings on record: Hepatitis B virus, 96 hours incubation, extracellular HBV DNA by direct qPCR, read-out: HBV inh EC50. The source says: HepAD38 cell line (Ladner et al., Antimicrob Agents Chemother, 1997, 41, 1715-20) was used for HBV inhibition assays. HepAD38 is a subclone, derived from Hepatoblastoma cell line HepG2 (ATCC® Number: HB-8065™), that expresses HBV genome under the transcriptional control of a tetracycline-responsive promoter in a TET-OFF system: addition of tetracycline (TET) or doxycycline suppresses HBV replication, while its removal switches on the process allowing HBV viral particles release in the cell supernatant. HepAD38 cell line is maintained in DMEM/F12, supplemented with 10% of fetal bovine serum, 1% of glutamine, 1% of penicillin/streptomycin, 0.4 mg/ml G418 and 0,3 ug/ml tetracycline. For the HBV inhibition assay, doxycycline-free medium is used in order to allow virion production.
HBV inhibition activity in vitro was performed in 96 multiwell plates. During the initial (primary) screening, compounds were first tested in triplicates at concentrations of 0.02 µM, 0.1µM, 0.5µM and 1µM. For selected compounds, an 8-point dose-response curve was obtained using 1:2 serial dilutions (starting from 0.01µM, 0.1µM, 0.4µM or 5 µM, depending on the degree of inhibition observed during the primary screening). From the dose-response curves, half maximal effective concentration (EC50) could be calculated (see also below).
In more detail, compounds - typically dissolved in DMSO stock solutions - were diluted to 2x the final desired concentration in 100 µl of the above medium (without doxycycline) and plated in three replicates in the 96-well plates.
Simultaneously, HepAD38 cells - extensively pre-washed in tetracycline-free medium in order to induce HBV production - were suspended at 2^∗10^4 cells in 100 µl of tetracycline-free medium and added to each well of the plate, to yield a final assay volume of 200 µl DMSO - used for stock solutions and compounds dilutions - which was always present in the assays at a final concentration of 0.5%.
Plates were then incubated 96 hours at 37°C and then subjected to cell viability assays and extracellular HBV quantification, in order to evaluate both the cytotoxic potential and the antiviral activity of compounds. Cytotoxicity was assessed by a commercial fluorescence assay that measures the metabolic activity of cells, directly related to cell viability (Cell Titer Blue, Promega). Anti-HBV activity was evaluated by quantification of extracellular HBV DNA with direct qPCR. In particular, supernatant was collected and centrifuged for cell debris clarification, viral DNA was extracted from virions by addition of lysis buffer (1 mM 1,4-dithiothreitol, 0.2% sodium dodecyl sulphate) and incubated at 95°C for 10 min. Samples were then diluted 1:40 and real time PCR amplification was performed with SYBR green assay (Power SYBR™ Green PCR Master Mix-Thermo Fisher Scientific) and specific HBV primer (HBV-DF:5'-[…]-3' (SEQ ID No. 1), HBV-DR:5'-[…]-3' (SEQ ID No. 2)).
Antiviral activity data for each compound are reported as EC50 threshold value (see Table 1 legend). Excel and Graphpad Prism programs are typically used for data elaboration and EC50 calculation.
With `C[C@@H](NC(=O)C(=O)N1C[C@H]2COc3c(cn(C)c3C(=O)Nc3ccc(F)c(Cl)c3)S(=O)(=O)N[C@H]2C1)C(F)(F)F` [Example E1, (3aR,10aR)-N-(3-chloro-4-fluorophenyl)-7-methyl-2-(2-oxo-2-(((R)-1,1,1-trifluoropropan-2-yl)amino)acetyl)-2,3,3a,4,10,10a-hexahydro-1H,7H-dipyrrolo[3,4-b:3',4'-f][1,4,5]oxathiazocine-8-carboxamide 5,5-dioxide], the concentration for a half-maximal effect (EC50) is under 500 nM.
As to `C[C@@H](NC(=O)C(=O)N1C[C@H]2COc3c(c(Cl)n(C)c3C(=O)Nc3ccc(F)c(Cl)c3)S(=O)(=O)N[C@H]2C1)C(F)(F)F` [Example E5, (3aR,10aR)-6-chloro-N-(3-chloro-4-fluorophenyl)-7-methyl-2-(2-oxo-2-(((R)-1,1,1-trifluoropropan-2-yl)amino)acetyl)-2,3,3a,4,10,10a-hexahydro-1H,7H-dipyrrolo[3,4-b:3',4'-f][1,4,5]oxathiazocine-8-carboxamide 5,5-dioxide], the EC50 was under 500 nM.
For `C[C@@H](NC(=O)C(=O)N1C[C@H]2COc3c(cn(C)c3C(=O)Nc3ccc(F)c(C(F)F)c3)S(=O)(=O)N[C@H]2C1)C(F)(F)F` [Example E3, (3aR,10aR)-N-(3-(difluoromethyl)-4-fluorophenyl)-7-methyl-2-(2-oxo-2-(((R)-1,1,1-trifluoropropan-2-yl)amino)acetyl)-2,3,3a,4,10,10a-hexahydro-1H,7H-dipyrrolo[3,4-b:3',4'-f][1,4,5]oxathiazocine-8-carboxamide 5,5-dioxide], the 50% effective concentration (EC50) is under 500 nM.
In the case of `C[C@@H](NC(=O)C(=O)N1C[C@H]2COc3c(c(Cl)n(C)c3C(=O)Nc3ccc(F)c(C(F)F)c3)S(=O)(=O)N[C@H]2C1)C(F)(F)F` [Example E7, (3aR,10aR)-6-chloro-N-(3-(difluoromethyl)-4-fluorophenyl)-7-methyl-2-(2-oxo-2-(((R)-1,1,1-trifluoropropan-2-yl)amino)acetyl)-2,3,3a,4,10,10a-hexahydro-1H,7H-dipyrrolo[3,4-b:3',4'-f][1,4,5]oxathiazocine-8-carboxamide 5,5-dioxide], the concentration for a half-maximal effect (EC50) is under 500 nM.
On to `C[C@@H](NC(=O)C(=O)N1C[C@H]2COc3c(c(Cl)n(C)c3C(=O)Nc3ccc(F)c(C(F)(F)F)c3)S(=O)(=O)N[C@H]2C1)C(F)(F)F` [Example E8, (3aR,10aR)-6-chloro-N-(4-fluoro-3-(trifluoromethyl)phenyl)-7-methyl-2-(2-oxo-2-(((R)-1,1,1-trifluoropropan-2-yl)amino)acetyl)-2,3,3a,4,10,10a-hexahydro-1H,7H-dipyrrolo[3,4-b:3',4'-f][1,4,5]oxathiazocine-8-carboxamide 5,5-dioxide], for which the 50% effective concentration (EC50) is under 500 nM.
With `Cc1cc(NC(=O)c2c3c(c(Cl)n2C)S(=O)(=O)N[C@H]2CN(C(=O)C(=O)N[C@H](C)C(F)(F)F)C[C@H]2CO3)ccc1F` [Example E9, (3aR,10aR)-6-chloro-N-(4-fluoro-3-methylphenyl)-7-methyl-2-(2-oxo-2-(((R)-1,1,1-trifluoropropan-2-yl)amino)acetyl)-2,3,3a,4,10,10a-hexahydro-1H,7H-dipyrrolo[3,4-b:3',4'-f][1,4,5]oxathiazocine-8-carboxamide 5,5-dioxide], the concentration giving a half-maximal response (EC50) was under 500 nM.
Regarding `C[C@@H](NC(=O)C(=O)N1C[C@H]2COc3c(cn(C)c3C(=O)Nc3ccc(F)c(F)c3)S(=O)(=O)N[C@H]2C1)C(F)(F)F` [Example E2, (3aR,10aR)-N-(3,4-difluorophenyl)-7-methyl-2-(2-oxo-2-(((R)-1,1,1-trifluoropropan-2-yl)amino)acetyl)-2,3,3a,4,10,10a-hexahydro-1H,7H-dipyrrolo[3,4-b:3',4'-f][1,4,5]oxathiazocine-8-carboxamide 5,5-dioxide], the EC50 was under 500 nM.
`C[C@@H](NC(=O)C(=O)N1C[C@H]2COc3c(c(Cl)n(C)c3C(=O)Nc3ccc(F)c(F)c3)S(=O)(=O)N[C@H]2C1)C(F)(F)F` [Example E6, (3aR,10aR)-6-chloro-N-(3,4-difluorophenyl)-7-methyl-2-(2-oxo-2-(((R)-1,1,1-trifluoropropan-2-yl)amino)acetyl)-2,3,3a,4,10,10a-hexahydro-1H,7H-dipyrrolo[3,4-b:3',4'-f][1,4,5]oxathiazocine-8-carboxamide 5,5-dioxide]: the concentration for a half-maximal effect (EC50) is under 500 nM.
Take `C[C@@H](NC(=O)C(=O)N1C[C@H]2COc3c(cn(C)c3C(=O)Nc3ccc(F)c(C(F)(F)F)c3)S(=O)(=O)N[C@H]2C1)C(F)(F)F` [Example E4, (3aR,10aR)-N-(4-fluoro-3-(trifluoromethyl)phenyl)-7-methyl-2-(2-oxo-2-(((R)-1,1,1-trifluoropropan-2-yl)amino)acetyl)-2,3,3a,4,10,10a-hexahydro-1H,7H-dipyrrolo[3,4-b:3',4'-f][1,4,5]oxathiazocine-8-carboxamide 5,5-dioxide]: the EC50 is under 500 nM.
